Results taken from patent publication US8354372B2 (priority 2006, dated 2013).
pIC50: −log10 of the molar value.

Assays:
[1] = target: endoproteinase Glu-C (Endo Glu-C) (Staphylococcus aureus, UniProt P0C1U8); details: isolated enzyme glu c, pH 8
[2] = human, plasma
[3] = system: bovine adrenal chromaffin cells; type: cell-based
CCI-rats = details: rat, in vivo, po
α4β2 nAChR = α4β2 nAChR (Homo sapiens, UniProt P17787+P43681); type: cell-based
α4β4 nAChR = α4β4 nAChR (Homo sapiens, UniProt P30926+P43681); type: cell-based
[4] = target: homopentameric neuronal nAChR, α7 (Homo sapiens, UniProt P36544); type: cell-based; details: 10 µM
α3α5β4 nAChR = α3α5β4 nAChR (Homo sapiens, UniProt P30926+P32297); type: cell-based
α3α6β2 nAChR = α3α6β2 nAChR (Homo sapiens, UniProt P17787+P32297+Q15825); type: cell-based; details: 30 µM
α3-containing nAChRs = type: cell-based
[5] = target: α3, β4 subtype of the nAchR (Rattus norvegicus, UniProt P04757+P12392); details: cited from earlier work
α9, α10 nAchR = details: cited from earlier work
[6] = system: streptozotocin-induced diabetic rat; details: in vivo; cited from earlier work
[7] = system: rat models of human neuropathic pain; details: in vivo; cited from earlier work
[8] = system: unmyelinated C-fiber axons in isolated segments of peripheral human nerves; details: cited from earlier work
[9] = in vivo; cited from earlier work
[10] = system: animal model of inflammatory pain; details: in vivo; cited from earlier work
[11] = target: nAChR combination α3α5β4 expressed in Xenopus oocytes; assay: cell-based or functional assay

Sequence of α3, β4 subtype of the nAchR (P04757 26-499 limits assumed): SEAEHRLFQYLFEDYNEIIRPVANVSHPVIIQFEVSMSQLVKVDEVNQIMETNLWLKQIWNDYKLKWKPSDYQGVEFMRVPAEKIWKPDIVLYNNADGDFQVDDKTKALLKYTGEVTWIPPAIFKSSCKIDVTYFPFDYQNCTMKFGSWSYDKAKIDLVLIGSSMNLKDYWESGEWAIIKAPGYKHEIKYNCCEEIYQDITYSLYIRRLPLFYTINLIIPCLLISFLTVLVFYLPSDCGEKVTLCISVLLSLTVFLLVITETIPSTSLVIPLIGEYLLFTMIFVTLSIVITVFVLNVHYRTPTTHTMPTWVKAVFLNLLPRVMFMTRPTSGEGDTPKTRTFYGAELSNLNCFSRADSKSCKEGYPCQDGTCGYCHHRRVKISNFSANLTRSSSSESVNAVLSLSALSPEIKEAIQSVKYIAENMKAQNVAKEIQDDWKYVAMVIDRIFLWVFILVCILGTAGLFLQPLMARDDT
Sequence of α3, β4 subtype of the nAchR (P12392 21-495 limits assumed): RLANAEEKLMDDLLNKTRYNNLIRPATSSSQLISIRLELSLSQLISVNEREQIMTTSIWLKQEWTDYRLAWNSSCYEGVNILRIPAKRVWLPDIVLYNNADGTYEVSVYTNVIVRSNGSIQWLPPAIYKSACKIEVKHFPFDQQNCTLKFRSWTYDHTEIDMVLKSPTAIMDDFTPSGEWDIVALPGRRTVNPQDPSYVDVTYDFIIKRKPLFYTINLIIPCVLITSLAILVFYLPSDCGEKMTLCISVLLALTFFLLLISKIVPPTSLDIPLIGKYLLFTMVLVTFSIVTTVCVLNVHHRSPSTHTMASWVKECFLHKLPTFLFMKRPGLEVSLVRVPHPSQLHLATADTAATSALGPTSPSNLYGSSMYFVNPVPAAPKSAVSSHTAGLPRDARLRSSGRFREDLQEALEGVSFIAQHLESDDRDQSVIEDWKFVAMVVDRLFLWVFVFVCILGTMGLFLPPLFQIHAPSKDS
Sequence of α3α6β2 nAChR (P32297 32-505 limits assumed): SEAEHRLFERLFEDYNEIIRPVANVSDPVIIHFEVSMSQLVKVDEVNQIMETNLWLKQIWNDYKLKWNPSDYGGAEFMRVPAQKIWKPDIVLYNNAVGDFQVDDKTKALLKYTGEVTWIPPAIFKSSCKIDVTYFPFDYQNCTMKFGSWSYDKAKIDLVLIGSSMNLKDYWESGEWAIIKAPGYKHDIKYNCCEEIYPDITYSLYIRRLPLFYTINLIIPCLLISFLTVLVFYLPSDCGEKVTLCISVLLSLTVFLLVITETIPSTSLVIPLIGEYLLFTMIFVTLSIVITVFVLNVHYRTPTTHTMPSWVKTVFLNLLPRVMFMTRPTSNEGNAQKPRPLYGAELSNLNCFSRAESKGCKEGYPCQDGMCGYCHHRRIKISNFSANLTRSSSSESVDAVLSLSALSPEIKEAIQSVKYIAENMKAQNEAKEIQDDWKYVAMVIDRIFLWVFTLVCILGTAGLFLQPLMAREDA
Sequence of α3α6β2 nAChR (Q15825 26-494 limits assumed): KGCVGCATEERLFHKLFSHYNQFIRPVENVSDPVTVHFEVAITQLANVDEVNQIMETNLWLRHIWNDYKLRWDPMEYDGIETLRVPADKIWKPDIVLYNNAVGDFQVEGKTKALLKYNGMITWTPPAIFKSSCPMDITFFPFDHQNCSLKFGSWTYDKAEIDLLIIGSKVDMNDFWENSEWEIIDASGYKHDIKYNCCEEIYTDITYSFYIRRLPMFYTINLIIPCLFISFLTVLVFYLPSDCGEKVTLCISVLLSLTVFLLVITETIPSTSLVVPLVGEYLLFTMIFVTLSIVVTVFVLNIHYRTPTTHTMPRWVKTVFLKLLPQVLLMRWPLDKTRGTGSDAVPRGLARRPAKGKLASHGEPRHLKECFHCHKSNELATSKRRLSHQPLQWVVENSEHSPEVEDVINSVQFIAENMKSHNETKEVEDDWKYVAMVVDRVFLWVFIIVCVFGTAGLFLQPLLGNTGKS
Sequence of α3α6β2 nAChR (P17787 26-502 limits assumed): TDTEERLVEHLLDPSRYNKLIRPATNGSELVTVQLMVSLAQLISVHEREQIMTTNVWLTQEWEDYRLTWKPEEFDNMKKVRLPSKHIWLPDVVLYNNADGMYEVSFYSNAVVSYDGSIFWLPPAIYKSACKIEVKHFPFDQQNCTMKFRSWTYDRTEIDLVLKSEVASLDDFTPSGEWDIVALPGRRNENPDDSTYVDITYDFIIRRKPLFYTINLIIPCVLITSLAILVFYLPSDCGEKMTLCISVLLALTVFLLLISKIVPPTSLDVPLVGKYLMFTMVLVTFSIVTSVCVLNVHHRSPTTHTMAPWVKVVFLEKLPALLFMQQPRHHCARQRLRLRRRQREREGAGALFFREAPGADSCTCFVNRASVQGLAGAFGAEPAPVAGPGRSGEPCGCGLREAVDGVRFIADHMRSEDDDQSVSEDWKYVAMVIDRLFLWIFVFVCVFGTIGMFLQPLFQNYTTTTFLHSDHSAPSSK
Sequence of α4β2 nAChR (P43681 29-627 limits assumed): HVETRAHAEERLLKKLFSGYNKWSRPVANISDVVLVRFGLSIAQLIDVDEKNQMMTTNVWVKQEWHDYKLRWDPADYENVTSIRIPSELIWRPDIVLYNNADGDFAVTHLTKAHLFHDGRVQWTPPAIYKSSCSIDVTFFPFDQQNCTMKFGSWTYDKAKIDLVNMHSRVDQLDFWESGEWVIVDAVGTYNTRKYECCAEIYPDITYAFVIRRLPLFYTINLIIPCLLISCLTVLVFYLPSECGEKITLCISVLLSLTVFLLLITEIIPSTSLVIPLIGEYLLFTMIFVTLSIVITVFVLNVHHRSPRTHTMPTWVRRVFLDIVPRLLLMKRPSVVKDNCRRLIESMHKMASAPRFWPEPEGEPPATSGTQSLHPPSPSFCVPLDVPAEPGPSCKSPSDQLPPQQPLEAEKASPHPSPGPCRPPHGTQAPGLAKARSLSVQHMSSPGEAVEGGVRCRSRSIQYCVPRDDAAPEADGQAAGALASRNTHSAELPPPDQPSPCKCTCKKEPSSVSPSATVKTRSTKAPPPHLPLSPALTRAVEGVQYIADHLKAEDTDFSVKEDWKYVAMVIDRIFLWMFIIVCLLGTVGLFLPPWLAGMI
Sequence of α4β2 nAChR (P17787 26-502 limits assumed): as the sequence (P17787 26-502 limits assumed) above
Sequence of α4β4 nAChR (P43681 29-627 limits assumed): as the sequence (P43681 29-627 limits assumed) above
Sequence of α4β4 nAChR (P30926 22-498 limits assumed): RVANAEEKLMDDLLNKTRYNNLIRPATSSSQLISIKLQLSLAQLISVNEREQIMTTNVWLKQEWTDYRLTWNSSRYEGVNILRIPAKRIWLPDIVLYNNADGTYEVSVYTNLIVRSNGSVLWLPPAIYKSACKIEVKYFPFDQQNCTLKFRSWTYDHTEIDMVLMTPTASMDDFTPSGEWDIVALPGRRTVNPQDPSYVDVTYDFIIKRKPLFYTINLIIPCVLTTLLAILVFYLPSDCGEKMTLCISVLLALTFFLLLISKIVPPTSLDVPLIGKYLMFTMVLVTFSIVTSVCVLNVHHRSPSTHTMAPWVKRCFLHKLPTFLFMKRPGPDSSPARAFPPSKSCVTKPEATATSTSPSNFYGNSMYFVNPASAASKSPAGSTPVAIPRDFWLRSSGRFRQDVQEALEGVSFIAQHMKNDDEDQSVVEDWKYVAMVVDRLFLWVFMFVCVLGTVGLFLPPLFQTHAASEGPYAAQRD
Sequence of homopentameric neuronal nAChR, α7 (P36544 23-502 limits assumed): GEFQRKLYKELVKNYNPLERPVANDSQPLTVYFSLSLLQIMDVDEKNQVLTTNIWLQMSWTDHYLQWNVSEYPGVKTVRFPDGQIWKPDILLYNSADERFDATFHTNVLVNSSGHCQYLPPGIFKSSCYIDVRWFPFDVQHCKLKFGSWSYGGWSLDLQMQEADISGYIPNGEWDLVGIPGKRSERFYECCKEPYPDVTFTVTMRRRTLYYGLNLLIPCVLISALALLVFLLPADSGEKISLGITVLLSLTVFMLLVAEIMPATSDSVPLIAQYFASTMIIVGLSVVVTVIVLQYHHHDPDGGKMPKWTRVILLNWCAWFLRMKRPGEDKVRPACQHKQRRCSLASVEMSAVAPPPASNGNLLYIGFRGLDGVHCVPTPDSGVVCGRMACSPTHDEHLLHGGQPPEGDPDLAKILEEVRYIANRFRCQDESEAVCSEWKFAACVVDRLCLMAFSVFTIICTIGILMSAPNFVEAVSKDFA
Sequence of endoproteinase Glu-C (Endo Glu-C) (P0C1U8 69-336 limits assumed): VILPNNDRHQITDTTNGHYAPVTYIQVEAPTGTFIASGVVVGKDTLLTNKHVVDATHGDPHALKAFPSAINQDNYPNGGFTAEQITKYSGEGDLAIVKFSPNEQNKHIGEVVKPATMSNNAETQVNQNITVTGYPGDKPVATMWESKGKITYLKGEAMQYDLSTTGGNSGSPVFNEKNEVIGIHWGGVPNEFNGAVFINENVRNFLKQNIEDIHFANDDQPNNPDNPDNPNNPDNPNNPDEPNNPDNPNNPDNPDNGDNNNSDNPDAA

CC(C)C[C@@H]1NC(=O)[C@H](CC(N)=O)NC(=O)[C@H](CO)NC(=O)[C@H](Cc2cnc[nH]2)NC(=O)[C@H](CCC(=O)O)NC(=O)[C@H](CC(C)C)NC(=O)[C@H](Cc2cnc[nH]2)NC(=O)[C@@H]2CSSC[C@H](NC(=O)CN)C(=O)N[C@@H](CSSC[C@@H](C(N)=O)NC1=O)C(=O)N[C@@H](CO)C(=O)N[C@@H](CC(N)=O)C(=O)N1CCC[C@H]1C(=O)N[C@@H](C(C)C)C(=O)N2 [MII]
half-life [1]: ~600 min
half-life [2]: ~960 min

CC[C@H](C)[C@@H]1NC(=O)[C@H](CCC(=O)O)NC(=O)[C@@H]2CCCN2C(=O)[C@H](Cc2c[nH]cn2)NC(=O)[C@H](CC(=O)O)NC(=O)[C@H](Cc2ccc(O)cc2)NC(=O)[C@H](CC(N)=O)NC(=O)[C@@H]2CSSC[C@@H]3NC(=O)CNC(=O)CNC(=O)CNC(=O)[C@H](C)NC(=O)[C@H](C)NC(=O)CNC(=O)CNC(=O)[C@H](CSSC[C@H](NC3=O)C(=O)N[C@@H](CO)C(=O)N[C@@H](CC(=O)O)C(=O)N3CCC[C@H]3C(=O)N[C@@H](CCCNC(=N)N)C(=O)N2)NC1=O [cVc1.1-6]
inhibition of catecholamine release, activity relative to linear Vc1.1 [3]: identical, within experimental error
ED50 (CCI-rats): ~1 mg/kg

Vc1.1
inhibition of ACh-evoked currents (α4β2 nAChR): failed to inhibit
inhibition of ACh-evoked currents (α4β4 nAChR): failed to inhibit
inhibition of the ACh-evoked current [4]: 14±2%
lower potency to inhibit α3α5β4 (α3α5β4 nAChR): > 5 fold
inhibition of ACh-induced current amplitude (α3α6β2 nAChR): ~50%
antagonism of ACh-evoked currents (α3-containing nAChRs): did not antagonise ACh-evoked currents
detectable response alone (>50 nA) (α3-containing nAChRs): nor elicit a detectable response alone
pIC50 [5]: 5.38
affinity for α9, α10 nAchR relative to α3, β4 nAchR (α9, α10 nAchR): one hundred fold higher
pIC50 (α9, α10 nAchR; read-out: affinity for the α9, α10 nAchR): 7.64
time after dosing at which anti allodynic effect was observed [6]: ≤ 1 h
effect on neuropathic pain in three rat models [7]: alleviate neuropathic pain
functional recovery of injured neurons [7]: accelerate the functional recovery of injured neurons
effect on nicotine-induced increase in axonal excitability [8]: antagonize
analgesic activity relative to Ziconotide [9]: more active than Ziconotide
efficacy in an animal model of inflammatory pain [10]: effective

α-conotoxin Vc1.1 (peptide)
potency to inhibit ACh-evoked current (fold lower potency) [11]: > 5
